# Measurements taken from the supplement of paper PMC10307832.
# How the values were obtained:
# Experiment in all cases: relative viability (nuclei count vs DMSO), 5 days (fraction); higher = more cells survive
# GW-2580 + Foretinib = compound: COC1=CC=C(C=C1)COC2=C(C=C(C=C2)CC3=CN=C(N=C3N)N)OC [GW-2580] + COc1cc2c(Oc3ccc(NC(=O)C4(C(=O)Nc5ccc(F)cc5)CC4)cc3F)ccnc2cc1OCCCN1CCOCC1 [Foretinib] (partner 0.25 µM)
# Method in brief: (§1)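 Five library-drug doses in √10 steps were combined with a fixed anchor-drug dose, or a single drug was given alone, by pin tool to lung cancer cell lines in 1536-well plates the day after seeding. Nuclei were stained and counted after 5 days. Relative viability is the nuclei count in treated wells over that in vehicle wells, taken as the median of duplicate plates.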
# GW-2580 + Tozasertib = compound: COC1=CC=C(C=C1)COC2=C(C=C(C=C2)CC3=CN=C(N=C3N)N)OC [GW-2580] + Cc1cc(Nc2cc(N3CCN(C)CC3)nc(Sc3ccc(NC(=O)C4CC4)cc3)n2)n[nH]1 [Tozasertib] (partner 0.1 µM)
# Method in brief: as §1
# GW-2580 + Lapatinib = compound: COC1=CC=C(C=C1)COC2=C(C=C(C=C2)CC3=CN=C(N=C3N)N)OC [GW-2580] + CS(=O)(=O)CCNCc1ccc(-c2ccc3ncnc(Nc4ccc(OCc5cccc(F)c5)c(Cl)c4)c3c2)o1 [Lapatinib] (partner 2 µM)
# Method in brief: as §1
# GW-2580 + Olaparib = compound: COC1=CC=C(C=C1)COC2=C(C=C(C=C2)CC3=CN=C(N=C3N)N)OC [GW-2580] + O=C(c1cc(Cc2n[nH]c(=O)c3ccccc23)ccc1F)N1CCN(C(=O)C2CC2)CC1 [Olaparib] (partner 8 µM)
# Method in brief: as §1
# GW-2580 + Linsitinib = compound: COC1=CC=C(C=C1)COC2=C(C=C(C=C2)CC3=CN=C(N=C3N)N)OC [GW-2580] + C[C@]1(O)C[C@@H](c2nc(-c3ccc4ccc(-c5ccccc5)nc4c3)c3c(N)nccn32)C1 [Linsitinib] (partner 1 µM)
# Method in brief: as §1
Cell Line,relative viability (GW-2580 + Foretinib; first compound 0.08 µM),relative viability (GW-2580 + Foretinib; first compound 0.8 µM),relative viability (GW-2580 + Foretinib; first compound 2.53 µM),relative viability (GW-2580 + Foretinib; first compound 8 µM),relative viability (GW-2580 + Tozasertib; first compound 0.08 µM),relative viability (GW-2580 + Tozasertib; first compound 0.8 µM),relative viability (GW-2580 + Tozasertib; first compound 2.53 µM),relative viability (GW-2580 + Tozasertib; first compound 8 µM),relative viability (GW-2580 + Lapatinib; first compound 0.08 µM),relative viability (GW-2580 + Lapatinib; first compound 0.8 µM),relative viability (GW-2580 + Lapatinib; first compound 2.53 µM),relative viability (GW-2580 + Lapatinib; first compound 8 µM),relative viability (GW-2580 + Olaparib; first compound 0.08 µM),relative viability (GW-2580 + Olaparib; first compound 0.8 µM),relative viability (GW-2580 + Olaparib; first compound 2.53 µM),relative viability (GW-2580 + Olaparib; first compound 8 µM),relative viability (GW-2580 + Linsitinib; first compound 0.08 µM),relative viability (GW-2580 + Linsitinib; first compound 0.8 µM),relative viability (GW-2580 + Linsitinib; first compound 2.53 µM),relative viability (GW-2580 + Linsitinib; first compound 8 µM)
LXF-289,1.06,0.99,0.957,0.891,0.191,0.188,0.161,0.157,0.941,0.946,0.815,0.829,1.24,1.14,1.06,1.19,1.02,0.992,0.997,0.858
NCI-H2009,1.31,1.25,1.21,1.17,0.744,0.828,0.715,0.707,0.966,0.894,0.91,0.857,0.752,0.698,0.918,0.645,1.14,1.21,1.18,1.06
NCI-H2405,1.04,1.08,0.963,0.958,0.8,0.726,0.656,0.524,1.05,1.16,1.02,0.912,0.911,0.981,0.797,0.712,0.979,0.85,0.886,0.861
NCI-H1755,1.02,0.967,0.907,0.679,0.545,0.576,0.523,0.538,1.12,1.28,0.94,0.96,0.984,0.905,0.737,0.785,1.05,1.17,0.955,0.761
HCC-78,0.524,0.605,0.513,0.497,0.253,0.357,0.401,0.314,0.917,1.37,0.439,0.752,0.818,0.919,0.757,0.861,0.541,0.574,0.371,0.486
LOU-NH91,0.957,0.969,0.94,1.02,0.687,0.657,0.625,0.589,0.748,0.811,0.649,0.789,0.916,0.946,0.897,0.98,0.956,0.972,0.877,1.02
NCI-H3122,1.07,0.991,0.982,0.961,0.549,0.421,0.468,0.362,1.01,1.02,0.999,1.04,0.682,0.739,0.675,0.648,0.993,1.13,1.16,1.05
HCC-827,1.13,1.02,1.02,0.905,0.557,0.469,0.47,0.371,0.225,0.211,0.167,0.152,0.692,0.642,0.632,0.617,0.975,1.03,1.01,0.961
SK-LU-1,0.823,0.934,0.708,0.816,0.362,0.338,0.272,0.292,0.962,1.14,0.829,0.979,0.431,0.497,0.389,0.503,1.39,1.23,1.04,1.16
NCI-H1975,0.965,1.03,0.939,0.803,0.854,1.06,0.614,0.654,0.925,1.09,0.885,0.834,0.815,0.864,0.874,0.806,1.19,0.931,0.89,0.875
NCI-H1651,0.958,0.804,0.754,0.745,0.763,0.745,0.702,0.569,1.08,0.909,0.778,0.956,0.175,0.183,0.196,0.197,1.06,1.04,1,0.982
LCLC-97TM1,1.01,0.961,1.01,0.884,0.289,0.161,0.154,0.261,1.02,–,0.973,0.898,0.379,0.579,0.313,0.428,0.207,–,0.164,0.177
NCI-H727,0.694,1.05,0.834,0.777,0.67,0.621,0.515,0.551,0.792,1.04,0.735,0.791,0.637,0.63,0.699,0.69,0.241,0.298,0.226,0.284
NCI-H1355,1.04,1.06,0.841,0.923,0.532,0.494,0.396,0.477,1.08,1.2,0.817,1.01,0.804,0.836,0.669,0.691,0.823,0.884,0.694,0.809
HOP-62,1.27,1.25,1.02,1.11,0.404,0.374,0.333,0.326,0.856,0.986,0.997,1.12,0.512,0.809,0.179,0.402,1.05,0.953,0.877,0.982
NCI-H2085,1,0.895,1.08,0.758,0.698,0.8,0.667,0.748,0.849,0.988,0.626,0.713,0.741,0.784,0.84,0.757,0.818,1.13,0.978,0.879
